According to patent US4416883A, “Penicillin derivatives” (Beecham Group Limited, priority 1980, dated 1983):

Experiments:
Type in all cases: cell-based
S. faecalis I = assay: MIC against S. faecalis I; conditions: Enterococcus faecalis, AGAR
Excerpt: (§1) | MIC values (μg/ml) of the compounds of Example 4b against | a number of organisms important in human infections

P. rettgeri = assay: MIC against P. rettgeri; conditions: Providencia rettgeri, AGAR
Excerpt: as §1

P. mirabilis 889 = assay: MIC against P. mirabilis 889; conditions: Proteus mirabilis, AGAR
Excerpt: as §1

E. coli JT425 = assay: MIC against E. coli JT425; conditions: Escherichia coli, AGAR
Excerpt: as §1

P. mirabilis C977 = assay: MIC against P. mirabilis C977; conditions: Proteus mirabilis, AGAR
Excerpt: as §1

P. morganii = assay: MIC against P. morganii; conditions: Morganella morganii, AGAR
Excerpt: as §1

B. subtilis = assay: MIC against B. subtilis; conditions: Bacillus subtilis, AGAR
Excerpt: as §1

Ps aeruginosa 10662 = assay: MIC against Ps aeruginosa 10662
Excerpt: as §1

Ps aeruginosa Dalgleish = assay: MIC against Ps aeruginosa Dalgleish; conditions: AGAR; Ps aeruginosa Dalgleish 10^-2
Excerpt: as §1

Enterobacter cloacae N1 = assay: MIC against Enterobacter cloacae N1; conditions: AGAR
Excerpt: as §1

Staph. aureus Russell = assay: MIC against Staph. aureus Russell; conditions: Staphylococcus aureus, AGAR
Excerpt: as §1

Serratia marcescens US32 = assay: MIC against Serratia marcescens US32; conditions: AGAR
Excerpt: as §1

β-Haemolytic Strep. CN10 = assay: MIC against β-Haemolytic Strep. CN10; conditions: AGAR
Excerpt: as §1

E. coli NCTC 10418 = assay: MIC against E. coli NCTC 10418; conditions: Escherichia coli
Excerpt: as §1

Klebsiella aerogenes A = assay: MIC against Klebsiella aerogenes A
Excerpt: as §1

Staph. aureus Oxford = assay: MIC against Staph. aureus Oxford; conditions: Staphylococcus aureus
Excerpt: as §1

E. coli JT4 = assay: MIC against E. coli JT4; conditions: Escherichia coli, AGAR
Excerpt: as §1

Q: What does the source list for `CCN1CCN(C(=O)N[C@@H](C(=O)N[C@@H]2C(=O)N3[C@@H](C(=O)O)CS[C@H]23)c2ccccc2)C(=O)C1=O` [Example 4b, Sodium 6β[D,2(4-ethyl-2,3-dioxopiperazine-1-carbonylamino)]phenylacetamidobisnorpenicillanate]?
A: MIC (S. faecalis I): 50 µg/mL; MIC (P. rettgeri): 0.5 µg/mL; MIC (P. mirabilis 889): > 100 µg/mL; MIC (E. coli JT425): 10 µg/mL; MIC (P. mirabilis C977): 0.1 µg/mL; MIC (P. morganii): 0.2 µg/mL; MIC (B. subtilis): 5 µg/mL; MIC (Ps aeruginosa 10662; AGAR, Ps aeruginosa 10662): 10 µg/mL; MIC (Ps aeruginosa 10662; AGAR, Ps aeruginosa 10662 10^-2): 5 µg/mL; MIC (Ps aeruginosa 10662; BROTH, Ps aeruginosa 10662): 10 µg/mL; MIC (Ps aeruginosa 10662; BROTH, Ps aeruginosa 10662 10^-2): 5 µg/mL; MIC (Ps aeruginosa Dalgleish): > 100 µg/mL; MIC (Enterobacter cloacae N1): 0.5 µg/mL; MIC (Staph. aureus Russell): > 100 µg/mL; MIC (Serratia marcescens US32): 0.5 µg/mL; MIC (β-Haemolytic Strep. CN10): 0.2 µg/mL; MIC (E. coli NCTC 10418; NCTC10418, AGAR): 1 µg/mL; MIC (E. coli NCTC 10418; NCTC10418, BROTH): 0.5 µg/mL; MIC (Klebsiella aerogenes A; AGAR): 0.2 µg/mL; MIC (Klebsiella aerogenes A; BROTH): > 10 µg/mL; MIC (Staph. aureus Oxford; AGAR): 1 µg/mL; MIC (Staph. aureus Oxford; BROTH): 0.5 µg/mL; MIC (E. coli JT4): > 100 µg/mL
